{"source": "patent US20110262456A1", "about": "“METHOD OF TREATING ISCHEMIA REPERFUSION INJURY” (priority 2008, published 2011)", "key": {"[1]": {"tested_on": "HL-60 human promyelocytic leukemia cells", "conditions": "cited from earlier work"}, "[2]": {"tested_on": "rabbit heart", "conditions": "application after the onset of cardiac ischemia, rabbit infarct model; cited from earlier work"}, "[3]": {"tested_on": "rabbit hearts", "test": "Rabbit heart regional ischemia/reperfusion, infarct size as percentage of risk zone", "type": "in vivo, New Zealand White rabbits", "conditions": "ischemia alone, FIG. 9", "protocol": "New Zealand White rabbits of either sex weighing nearly 3 Kg were anesthetized with intravenous sodium pentobarbital (30 mg/kg). Throughout the experiment, additional anesthesia was administered as needed (5-15 mg pentobarbital/15 min) A heating pad maintained rectal temperature between 38.5 and 39.5-C. Animals were intubated through a tracheotomy and ventilated with 100% O2 with the aid of a mechanical ventilator. To administer drugs, a PE 50 catheter filled with heparinized saline was placed in an ear vein. After a left thoractomy, a prominent branch of the left coronary artery was surrounded with a suture (2-0 silk) to form a snare. The rabbits were allowed to stabilize for 15 min after surgery before the protocols were begun. […] The coronary artery was re-occluded, and […] diameter green fluorescent microspheres (Duke Scientific Corp., Palo Alto, Calif.) were infused into the perfusate to demarcate the ischemic zone as the area of tissue without fluorescence (region at risk). […] The areas of infarct and risk zone were determined by planimetry of each slice and volumes were calculated by multiplying each area by its slice thickness and summing them for each heart. Infarct size is expressed as a percentage of the risk zone. […] All data are expressed as mean TS.E.M. One-way analysis of variance (ANOVA) combined with Tukey's posthoc test was performed on baseline hemodynamic and infarct data. […]"}}, "note": "Like-named read-outs stand apart in the source and are kept apart here."}
{"smiles": "CNC(=O)[C@H]1O[C@@H](n2cnc3c(NCc4cccc(I)c4)nc(Cl)nc32)[C@H](O)[C@@H]1O", "note": "[C1-IB-MECA]", "values": [{"measurement": "apoptosis in HL-60 cells, low concentrations", "setting": "[1]; 10 nM or 1 μM", "value": "protected against"}, {"measurement": "apoptosis in HL-60 cells", "setting": "[1]; 10-30 μM", "value": "induced apoptosis"}]}
{"smiles": "N#Cc1c(N)nc(SCC(N)=O)c(C#N)c1-c1ccc(OCC2CC2)cc1", "note": "[BAY-60-6583]", "values": [{"measurement": "reduction of the infarct size", "setting": "[2]", "value": "effective"}]}
{"smiles": "CCNC(=O)[C@H]1O[C@@H](n2cnc3c(N)ncnc32)[C@H](O)[C@@H]1O", "note": "[NECA, 5′-N-ethylcarboxamidoadenosine]", "values": [{"measurement": "protection (inhibition of infarct size)", "setting": "[3]", "value": 50, "unit": "%"}]}
{"smiles": "CNC(=O)[C@H]1O[C@@H](n2cnc3c(NCc4cccc(I)c4)ncnc32)[C@H](O)[C@@H]1O", "note": "[IB-MECA]", "values": [{"measurement": "apoptosis in HL-60 cells", "setting": "[1]; 30 and 60 μM", "value": "induced apoptosis"}]}
